Results on seven compounds are retold here after patent US7582652B2, “Kinase inhibitors” (Eli Lilly and Company, priority 2004, dated 2009).

The IC50 is the concentration needed to halve the response being measured. Lower therefore signals inhibition by little substance.

The subject of assay [1] is TNF-α production in mouse peritoneal macrophages. The assay is described as follows: Inhibition of TNF-α in vitro (mouse peritoneal macrophages, LPS/interferon-γ, Luminex). In kind it is cell-based. The following applies: Mus musculus, Peritoneal macrophage; suppression of TNF-α; macrophages treated with 50 ng/mL LPS and 10 U/mL interferon-γ for 18 h. The method, then:
Mouse Peritoneal Macrophages
1 mL thioglycolate broth (5.0 g yeast extract, 15.0 g casitone or trypticase, 5.0 g dextrose, 2.5 g sodium chloride, 0.75 g L-cystine, 0.5 g sodium thioglycolate, 1.0 mg resazurin, and 0.75 g agar in 1.0 L distilled water) is injected into the peritoneal cavity of Balb/C female mice. At day 4 or 5 post-injection the mice are sacrificed and then injected i.p. with 4 mL RPMI-1640 medium (BioWhittaker) and the peritoneal macrophages are withdrawn by syringe.
Mouse peritoneal microphages are counted with a hemocytometer and adjusted to 5×10^5 cells/well in 96-well plates in RPMI-1640 medium with 10% fetal bovine serum. 200 μL/well is plated in 96-well plates and the cells allowed to settle and adhere to the bottom of the well for at least 3 h. The test compound or standard p38 kinase inhibitor is pre-treated using a series of 8 concentrations for 1 h at 37° C. (20 μL/well). The cells are treated with a mixture of 50 ng/mL lipopolysaccharide (LPS) and 10 U/mL interferon-γ for 18 h at 37° C. (20 μL/well). The conditioned media is harvested and assayed for TNF-α production using the Luminex procedure.
TNF-α/Luminex Detection Assay (Bio-Rad Bio-Plex Kit—Catalog #171-G12221)
The lyophilized premixed TNF-α standard (1 standard tube/two 96-well plates) is reconstituted with 50 μL sterile water (500,000 pg/mL). The samples are vortexed for 5 seconds, incubated on ice for 30 min, and vortexed for 5 seconds before use. A set of twelve 1.5 mL tubes are labeled with #1-thru #12 and then the amounts of cell media shown below added to the appropriate tubes (standard concentrations are as follows: 50,000; 25,000; 12,500; 6,250; 3,125; 1,562.5; 781.3; 390.6; 195.3; 97.7; 48.8; and 24.4 pg/mL). The premixed anti-cytokine conjugated beads are vortexed (25×) vigorously for 30 seconds. The anti-cytokine conjugated beads are diluted to a 1× concentration using 1× Bio-Plex Assay Buffer. For every plate, 240 μL of the pre-mixed beads is added to 5760 μL of Bio-Plex Assay Buffer. A Millipore 96-well filter plate is blocked with 100 μL/well of blocking buffer. The blocking buffer is filtered through using a Millipore filtration system and then toweled dry. 2 washes are performed on the filter plate with 100 μL/well of Bio-Plex Assay Buffer and toweled dry. The 1× anti-cytokine conjugated beads are vortexed for 15 seconds and added 50 μL to each well. This is filtered through and toweled dry. 2 washes are performed on plates with 100 μl/well of Bio-Plex Wash Buffer. Again, it is filtered through and toweled dry. 50 μL of sample or standard is added to each sample well. This is incubated for 60 seconds at RT on a shaker protected from light at setting 6 and then for 30 min at setting 3 and then placed in the refrigerator overnight. 3 washes are performed with Bio-Plex Wash Buffer. Filter through and toweled dry. The cytokine detection antibody is prepared (˜10 min prior to use) for every plate and 60 μL of the premixed cytokine detection antibody stock is added to 5940 μL of Bio-Plex Detection Antibody Diluent. 50 μL of cytokine detection antibody is added and incubated for 60 seconds at RT on a shaker protected from light at setting 6 and then for 30 min at setting 3.3 washes are performed with the Bio-Plex Wash Buffer. This is filtered through and toweled dry. Strept-PE (˜10 minutes prior to use) is prepared for every plate and 60 μL to 5940 μL of Bio-Plex Assay Buffer added. 50 μL of Streptavidin-PE is added to each well and incubated for 60 seconds at RT on a shaker protected from light at setting 6 and then for 10 min at setting 3. 3 washes are performed with Bio-Plex Wash-Buffer. This is filtered through. The beads are re-suspended in 100 μL/well of Bio-Plex Assay Buffer. Standards and samples are read on a Luminex machine. […]

For another assay, the target named is p38 kinase enzyme (Homo sapiens, UniProt Q16539). The assay is described as follows: Inhibition of p38 kinase. It is filed as biochemical. The following applies: 33P-ATP, EGF peptide 661-681, 30° C. Here is the method: Standard Solution Preparations
The kinase buffer solution is prepared by combining 2.5 mL 1 M Tris-HCl (pH 7.5), 0.1 ml 1 M dithiothreitol, 1.0 mL 1 M magnesium chloride, and 300 μL 1% Triton X-100 and diluting to 100 mL with water. 84 mL of this kinase buffer solution is combined with 16 mL DMSO to prepare the 16% DMSO solution.
The 200 μM ATP solution is prepared by adding 102.6 μL 10 mM aqueous ATP, 25 μL ^33P-ATP, and 163.5 μL of 4 mM aqueous Epidermal Growth Factor Peptide 661-681 (Biomol, Catalog #P-121) in 5 mL kinase buffer solution.
The p38 kinase enzyme solution is prepared by dissolving 9.5 μL concentrated enzyme solution (250 ng p38 enzyme/μL kinase buffer solution) in 1536 μL kinase buffer solution.
An 80 μM solution of each test compound and control compound are prepared by dissolving 2 μL of a 10 mM stock solution of the respective compounds in dimethylsulfoxide in 248 μL of the 16% DMSO solution in a Costar 96-well microtiter plate. The plate is placed onto the Tecan Genesis automated liquid handler for 1:3 serial dilutions.
10 μL of serially diluted compound is placed with a Beckmnan Multimek 96-well automated liquid handler to the assay plate. […] of 200 μM ATP solution is added with a Titertek Multidrop 8-channel liquid handler. 10 μL of p38 kinase enzyme solution is transferred to the assay plate using the Multimek. The mixture is allowed to react for […] and then the reaction is stopped by adding 60 μL of freshly prepared 5% glacial AcOH with Multidrop. 80 μL of this solution is transferred to an “MAPH” plate using the Multimek. The plates are allowed to set for 30 min at RT and then washed/aspirated on the Titertek MAP extractor with freshly prepared 0.5% glacial AcOH (1×300 μL, 2×200 μL). The wells are blotted and 100 μL MicroScint-20 scintillation fluid (Packard Bioscience) is added with the Multidrop. The plates are allowed to sit for 30 min and counted on a PE/Wallac Microbeta Trilux scintillation counter for ^33P-isotope.
All exemplified compounds were initially tested at 10 concentrations (20 μM−1 nM using 1:3 serial dilutions). […] IC50 values were calculated (IDBS ActivityBase software) for each compound using non-linear regression.

p38 kinase enzyme, sequence (Q16539 whole entry): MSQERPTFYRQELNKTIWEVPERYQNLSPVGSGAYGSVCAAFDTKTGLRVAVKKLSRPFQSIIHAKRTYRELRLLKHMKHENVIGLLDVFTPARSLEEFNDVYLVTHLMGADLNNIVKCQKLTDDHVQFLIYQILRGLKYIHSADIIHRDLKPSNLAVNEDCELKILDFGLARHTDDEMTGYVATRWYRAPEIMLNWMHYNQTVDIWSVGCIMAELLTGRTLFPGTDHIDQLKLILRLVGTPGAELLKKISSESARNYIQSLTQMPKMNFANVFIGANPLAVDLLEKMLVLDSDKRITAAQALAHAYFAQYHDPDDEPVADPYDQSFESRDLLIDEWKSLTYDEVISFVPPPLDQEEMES

`CC(C)(C)Cn1c(N)nc2ccc(-c3[nH]c(C(C)(C)C)nc3-c3ccc(F)cc3F)nc21` [EXAMPLE 11, 5-[2-tert-Butyl-5-(2,4-difluorophenyl)-3H-imidazol-4-yl]-3-(2,2-dimethylpropyl)-3H-imidazo[4,5-b]pyridin-2-ylamine methanesulfonate] yielded a concentration for half-maximal inhibition (IC50) in assay [1] of 2.4 nM. As to `C[C@@H](n1c(N)nc2ccc(-c3[nH]c(-c4c(F)cccc4F)nc3-c3ccc(F)cc3)nc21)C(C)(C)C` [compound 13, R-5-[2-(2,6-Difluorophenyl)-5-(4-fluorophenyl)-3H-imidazol-4-yl]-3-(1,2,2-trimethylpropyl)-3H-imidazo[4,5-b]pyridin-2-ylamine methanesulfonate], the values for the IC50 (against p38 kinase enzyme; in assay [1]) were 3.3 nM and below 9.1 nM, respectively. For `Nc1nc2ccc(-c3[nH]c(-c4c(F)cccc4F)nc3-c3ccccc3)nc2n1CC1CC1` [compound 19, 3-Cyclopropylmethyl-5-[2-(2,6-difluorophenyl)-5-phenyl-3H-imidazol-4-yl]-3H-imidazo[4,5-b]pyridin-2-ylamine methanesulfonate], in that order: 3.2 nM and below 9.1 nM. For `CC(C)(C)Cn1c(N)nc2ccc(-c3[nH]c(-c4c(F)cccc4C(F)(F)F)nc3-c3ccccc3)nc21` [EXAMPLE 6, 3-(2,2-Dimethylpropyl)-5-[2-(2-fluoro-6-trifluoromethylphenyl)-5-phenyl-3H-imidazol-4-yl]-3H-imidazo[4,5-b]pyridin-2-ylamine methanesulfonate], the results for the 50% inhibitory concentration (IC50) (against p38 kinase enzyme; in assay [1]) were 7.2 nM and below 9.1 nM, respectively. As for `CC(C)(C)Cn1c(N)nc2ccc(-c3[nH]c(C(C)(C)C)nc3-c3ccc(F)cc3)nc21` [EXAMPLE 9, 5-[2-tert-Butyl-5-(4-fluorophenyl)-3H-imidazol-4-yl]-3-(2,2-dimethylpropyl)-3H-imidazo[4,5-b]pyridin-2-ylamine methanesulfonate], inhibition in assay [1] was half-maximal at 1.2 nM (IC50). As to `CC(C)(C)Cn1c(N)nc2ccc(-c3[nH]c(-c4c(F)cccc4Cl)nc3-c3ccccc3)nc21` [compound 18, 5-[2-(2-Chloro-6-fluorophenyl)-5-phenyl-3H-imidazol-4-yl]-3-(2,2-dimethylpropyl)-3H-imidazo[4,5-b]pyridin-2-ylamine methanesulfonate], the IC50 is 3.6 nM against p38 kinase enzyme and below 9.1 nM in assay [1]. In the case of `C[C@@H](n1c(N)nc2ccc(-c3[nH]c(C(C)(C)C)nc3-c3ccc(F)cc3)nc21)C(C)(C)C` [compound 12, R-5-[2-tert-Butyl-5-(4-fluorophenyl)-3H-imidazol-4-yl]-3-(1,2,2-trimethylpropyl)-3H-imidazo[4,5-b]pyridin-2-ylamine methanesulfonate], half-maximal inhibition at p38 kinase enzyme (IC50) was put at 3.6 nM.
